Measured values from patent US11339130B1 (Blade Therapeutics, Inc., priority 2016, dated 2022).
Read-outs that look alike come from different tables or passages of the source.

Tests used:
[1] = molecular target: T1, Human Calpain 2/NS1 (Homo sapiens, UniProt P17655); experiment: Calpain inhibition continuous fluorescence (FRET) assay, Human Calpain 2/NS1; assay type: biochemical; details: read-out: Human Calpain 2/NS1 IC50
T1 sequence (P17655 1-700): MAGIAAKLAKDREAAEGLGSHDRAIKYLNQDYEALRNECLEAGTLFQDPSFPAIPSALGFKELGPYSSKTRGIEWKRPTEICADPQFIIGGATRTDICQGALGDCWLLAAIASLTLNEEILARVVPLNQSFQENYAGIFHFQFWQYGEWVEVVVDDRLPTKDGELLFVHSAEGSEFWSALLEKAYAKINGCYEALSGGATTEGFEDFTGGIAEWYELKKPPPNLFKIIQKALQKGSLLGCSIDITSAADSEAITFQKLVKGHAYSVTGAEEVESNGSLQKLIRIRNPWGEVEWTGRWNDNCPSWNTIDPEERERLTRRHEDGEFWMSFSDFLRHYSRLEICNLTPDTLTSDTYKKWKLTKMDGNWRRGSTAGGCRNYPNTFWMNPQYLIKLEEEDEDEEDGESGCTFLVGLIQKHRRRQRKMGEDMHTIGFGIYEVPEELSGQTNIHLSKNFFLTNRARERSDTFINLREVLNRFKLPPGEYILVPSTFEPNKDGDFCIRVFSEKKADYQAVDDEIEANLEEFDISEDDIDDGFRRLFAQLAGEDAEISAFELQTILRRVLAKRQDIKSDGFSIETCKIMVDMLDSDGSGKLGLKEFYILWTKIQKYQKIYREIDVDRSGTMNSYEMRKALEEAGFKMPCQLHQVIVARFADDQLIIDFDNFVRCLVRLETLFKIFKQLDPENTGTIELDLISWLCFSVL
T1 sequence (P04632 1-268 partner): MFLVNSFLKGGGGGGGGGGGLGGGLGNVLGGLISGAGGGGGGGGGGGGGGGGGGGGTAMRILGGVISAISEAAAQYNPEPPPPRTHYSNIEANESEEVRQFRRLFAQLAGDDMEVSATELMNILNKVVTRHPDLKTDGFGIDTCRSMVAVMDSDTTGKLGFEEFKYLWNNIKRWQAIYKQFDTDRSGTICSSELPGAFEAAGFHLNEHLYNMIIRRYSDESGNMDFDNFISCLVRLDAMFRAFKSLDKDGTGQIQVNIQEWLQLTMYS
Procedure, shortened: (§1)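 Fluorescence increase from the cleaved 5-FAM/QXL 520 substrate, read at 490/520 nm, gave activity. Calcium was supplied with the substrate to activate the enzyme in situ after a 25C enzyme-inhibitor preincubation, and IC50s were fit from initial slopes.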

[2] = tested on: Calpain activity in SH-SY5Y cells (SBDP-150); experiment: SH-SY5Y Spectrin western blot assay (SBDP-150 breakdown product, A23187-induced); assay type: cell-based; details: Homo sapiens, SH-SY5Y cells, read-out: SH-SY5Y Spectrin IC50
[3] = molecular target: T2, Human Calpain 1/NS1 (Homo sapiens, UniProt P07384); experiment: Calpain inhibition continuous fluorescence (FRET) assay, Human Calpain 1/NS1; assay type: biochemical; details: read-out: Human Calpain 1/NS1 IC50
T2 sequence (P07384 1-714): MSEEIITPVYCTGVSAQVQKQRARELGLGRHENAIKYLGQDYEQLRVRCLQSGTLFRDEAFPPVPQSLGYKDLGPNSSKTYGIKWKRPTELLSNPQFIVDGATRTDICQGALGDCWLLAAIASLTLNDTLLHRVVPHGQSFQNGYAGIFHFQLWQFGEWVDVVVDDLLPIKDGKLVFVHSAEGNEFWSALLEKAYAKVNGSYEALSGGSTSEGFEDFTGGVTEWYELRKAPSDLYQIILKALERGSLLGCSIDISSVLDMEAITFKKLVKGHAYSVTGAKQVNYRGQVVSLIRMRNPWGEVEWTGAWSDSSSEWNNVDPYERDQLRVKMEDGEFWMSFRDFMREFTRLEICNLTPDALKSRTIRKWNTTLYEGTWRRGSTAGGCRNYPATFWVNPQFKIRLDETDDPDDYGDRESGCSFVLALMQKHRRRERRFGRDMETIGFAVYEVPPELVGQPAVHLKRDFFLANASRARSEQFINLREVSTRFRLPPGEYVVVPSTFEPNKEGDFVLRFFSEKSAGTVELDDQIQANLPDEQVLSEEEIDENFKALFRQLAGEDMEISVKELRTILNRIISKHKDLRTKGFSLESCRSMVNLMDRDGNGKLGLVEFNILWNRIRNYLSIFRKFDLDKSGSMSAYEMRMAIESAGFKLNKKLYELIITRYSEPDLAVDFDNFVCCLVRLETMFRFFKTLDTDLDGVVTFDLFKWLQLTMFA
T2 sequence (P04632 1-268 partner): T1 sequence (P04632 1-268 partner)
Procedure, shortened: as §1

[4] = Column D, A23187-induced SBDP-150
[5] = A23187-induced SBDP-150, western blot

SMILES | IC50 ([1]; Column B) [µM] | IC50 [2, 4] [µM] | IC50 ([3]; Column A) [µM] | IC50 [1] [µM] | IC50 [3] [µM] | IC50 [2, 5] [µM]
NC(=O)C(=O)[C@H](Cc1ccccc1)NC(=O)c1snnc1-c1ccccc1 [Compound 44, (S)—N-(4-amino-3,4-dioxo-1-phenylbutan-2-yl)-4-phenyl-1,2,3-thiadiazole-5-carboxamide] | < 3 | 10 to 25 | < 3 | – | – | –
Cc1nc(-c2ccccc2F)c(C(=O)NC(Cc2ccccc2)C(=O)C(N)=O)o1 (centres unmarked) [Compound 405, N-(4-amino-3,4-dioxo-1-phenylbutan-2-yl)-4-(2-fluorophenyl)-2-methyloxazole-5-carboxamide] | – | – | – | < 3 | < 3 | –
Cc1cc(C(=O)NC(Cc2ccccc2)C(=O)C(N)=O)n(-c2ccccn2)n1 (centres unmarked) [Compound 495, N-(4-amino-3,4-dioxo-1-phenylbutan-2-yl)-3-methyl-1-(pyridin-2-yl)-1H-pyrazole-5-carboxamide] | – | – | – | < 3 | < 3 | 10 to 25
NC(=O)C(=O)[C@H](Cc1ccccc1)NC(=O)c1cnoc1-c1ccccc1 [Compound 60, (S)—N-(4-amino-3,4-dioxo-1-phenylbutan-2-yl)-5-phenylisoxazole-4-carboxamide] | < 3 | < 10 | < 3 | – | – | –
Cc1nc(-c2ccccc2)c(C(=O)NC(Cc2ccccc2)C(=O)C(N)=O)o1 (centres unmarked) [Compound 357, N-(4-amino-3,4-dioxo-1-phenylbutan-2-yl)-2-methyl-4-phenyloxazole-5-carboxamide] | – | – | – | < 3 | < 3 | < 10
NC(=O)C(=O)C(Cc1ccccc1)NC(=O)c1cn(C(F)F)nc1-c1ccccc1 (centres unmarked) [Compound 403, N-(4-amino-3,4-dioxo-1-phenylbutan-2-yl)-1-(difluoromethyl)-3-phenyl-1H-pyrazole-4-carboxamide] | – | – | – | < 3 | < 3 | < 10
NC(=O)C(=O)C(Cc1ccccc1)NC(=O)c1cn(C2CC2)nc1-c1ccccc1 (centres unmarked) [Compound 406, N-(4-amino-3,4-dioxo-1-phenylbutan-2-yl)-1-cyclopropyl-3-phenyl-1H-pyrazole-4-carboxamide] | – | – | – | < 3 | < 3 | 10 to 25
CCCC[C@H](NC(=O)c1oc(C)nc1-c1ccccc1)C(=O)C(N)=O [Compound 265, (S)—N-(1-amino-1,2-dioxoheptan-3-yl)-2-methyl-4-phenyloxazole-5-carboxamide] | < 3 | < 10 | < 3 | – | – | –
NC(=O)C(=O)[C@H](Cc1ccccc1)NC(=O)c1cn(C2CC2)nc1-c1ccccc1 [Compound 250, (S)—N-(4-amino-3,4-dioxo-1-phenylbutan-2-yl)-1-cyclopropyl-3-phenyl-1H-pyrazole-4-carboxamide] | < 3 | 10 to 25 | < 3 | – | – | –
Cl.Cn1cc(C(=O)NC(Cc2ccccc2)C(=O)C(N)=O)c(-c2cccc(F)c2)n1 (centres unmarked) [Compound 485, N-(4-amino-3,4-dioxo-1-phenylbutan-2-yl)-3-(3-fluorophenyl)-1-methyl-1H-pyrazole-4-carboxamide hydrochloride] | – | – | – | < 3 | < 3 | 10 to 25
NC(=O)C(=O)[C@H](Cc1ccccc1)NC(=O)c1nsnc1-c1ccccc1 [Compound 72, (S)—N-(4-amino-3,4-dioxo-1-phenylbutan-2-yl)-4-phenyl-1,2,5-thiadiazole-3-carboxamide] | < 3 | < 10 | < 3 | – | – | –
Cn1cc(C(=O)NC(Cc2ccccc2)C(=O)C(N)=O)c(-c2ccccc2F)n1 (centres unmarked) [Compound 484, N-(4-amino-3,4-dioxo-1-phenylbutan-2-yl)-3-(2-fluorophenyl)-1-methyl-1H-pyrazole-4-carboxamide] | – | – | – | < 3 | < 3 | 10 to 25
Cn1cc(C(=O)N[C@@H](Cc2ccccc2)C(=O)C(N)=O)c(-c2ccccc2)n1 [Compound 32, (S)—N-(4-amino-3,4-dioxo-1-phenylbutan-2-yl)-1-methyl-3-phenyl-1H-pyrazole-4-carboxamide] | < 3 | < 10 | < 3 | – | – | –
Cc1nc(-c2cccc(F)c2)c(C(=O)NC(Cc2ccccc2)C(=O)C(N)=O)o1 (centres unmarked) [Compound 404, N-(4-amino-3,4-dioxo-1-phenylbutan-2-yl)-4-(3-fluorophenyl)-2-methyloxazole-5-carboxamide] | – | – | – | < 3 | < 3 | < 10
